In article PMC3606118, “Salvianolic Acid A, a Novel Matrix Metalloproteinase-9 Inhibitor, Prevents Cardiac Remodeling in Spontaneously Hypertensive Rats” (PLoS ONE, 2013):

Assays:
[1] = test system: neonatal cardiac fibroblasts; assay: Myofibroblast transformation (α-SMA immunofluorescence) induced by MMP-9 CD; type: cell-based, Wistar rats; details: 1 or 10 µmol/L SalA, 200 nmol/L MMP-9 CD, 24 h
Procedure: (§1) Primary cardiac fibroblast was obtained from neonatal rats and National Institutes of Health (NIH) Guide for the Care and Use of Laboratory Animals was followed throughout. Wistar rats (2–4 day old) were sacrificed by cervical dislocation; ventricles were minced and digested with 0.1% trypsin at 37°C for 8 min. The liberated cells were collected by centrifugations; non-digested chunk materials were further digested in 0.1% trypsin for an additional 8 min. This digestion procedure was repeated 3–4 times. All the liberated cells were pelleted by centrifugation at 1,000 rpm for 10 min, re-suspended in DMEM containing 10% fetal bovine serum (FBS), and cultured in a 100-mm noncoated culture flask at 37°C with 5% CO2 for 2 h. Adherent cardiac fibroblasts were collected and maintained in DMEM supplemented with 10% FBS, 100 U/mL penicillin, 100 µg/mL streptomycin [12]. Cardiac fibroblasts were treated by vehicle (Con); 200 nmol/L MMP-9 CD (MMP-9); 200 nmol/L MMP-9 CD plus 1 µmol/L SalA [MMP-9/SalA(1)]; or 200 nmol/L MMP-9 CD plus 10 µmol/L SalA [MMP-9/SalA(10)] for the following research. All the detections were conducted after 24 h treatment.
α-SMA expression was used to evaluate the effect of SalA on myofibroblast transformation from fibroblast induced by MMP-9 CD. Neonatal cardiac fibroblasts were cultured on glass slides until reaching ∼70% confluence. […]

[2] = test system: neonatal cardiac fibroblast; assay: Transwell migration of neonatal cardiac fibroblast induced by MMP-9 CD; type: cell-based, Wistar rats; details: 1 µmol/L SalA, 200 nmol/L MMP-9 CD, 24 h (MMP-9 alone 85.2±12.4, Con 25.9±2.1)
Procedure: as §1, with “Cardiac fibroblasts were treated by vehicle (Con); 200 nmol/L MMP-9 CD (MMP-9); 200 nmol/L MMP-9 CD plus 1 µmol/L SalA [MMP-9/SalA(1)]; or 200 nmol/L MMP-9 CD plus 10 µmol/L SalA [MMP-9/SalA(10)] for the following research. All the detections were conducted after 24 h treatment.” left out
Transwell assay was employed to evaluate effects of SalA on neonatal cardiac fibroblast migration induced by MMP-9 CD. […] After incubating for 24 h, migrated cells (in the lower side of migration chamber) were stained with 0.1% crystal violet and counted with a microscope at 200 X magnification. Five to six view fields were counted on each membrane. Migration is expressed as the mean value of total number of migrated cells per field.

MMP-9 CD = target: T1, MMP-9 CD (Homo sapiens, UniProt P14780, DEL217-390); assay: Real time binding by surface plasmon resonance (Biacore); details: steady state affinity fit model; immobilized MMP-9 CD, 25°C; read-out: equilibrium dissociation constant (KD)
T1 construct: corresponding to residues 107–216 and 391–444; made in house
T1 sequence (P14780 with tags, fused parts or gaps DEL217-390 limits assumed): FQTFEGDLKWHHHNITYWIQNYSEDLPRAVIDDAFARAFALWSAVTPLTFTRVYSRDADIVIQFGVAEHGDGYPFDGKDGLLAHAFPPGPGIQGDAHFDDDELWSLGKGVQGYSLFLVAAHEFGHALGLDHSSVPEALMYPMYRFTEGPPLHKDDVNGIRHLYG
Procedure: DNA fragments encoding the catalytic domain of MMP-9 (MMP-9 CD, corresponding to residues 107–216 and 391–444) were constructed and subcloned into a pET-15b vector (Novagen). […]. Surface plasmon resonance analysis was performed using Biacore 3000 (Biacore AB). In brief, MMP-9 CD protein (5.8 µmol/L) in 10 mmol/L sodium acetate buffer (pH 3.73) was covalently immobilized on the hydrophilic carboxymethylated dextran matrix of the CM5 sensor chip (BIAcore AB) using standard primary amine coupling procedure. Phenolic acid at various concentrations in HBS-EP running buffer (10 mmol/L HEPES pH 7.4, 150 mmol/L NaCl, 3.4 mmol/L EDTA and 0.005% surfactant P20) were injected at a constant flow rate of 30 µL/min at 25°C. All data were analyzed by BIAevaluation software and the sensorgrams were processed by automatic correction for nonspecific bulk refractive index effects.

MMP-9 = target: T2, MMP-9 (Rattus norvegicus, UniProt P50282); assay: In-gel gelatin zymography of SHR heart, MMP-9; type: in vivo, SHR rats; details: SalA i.p. everyday for 4 weeks
T2 construct: twenty µg protein from tissue; from tissue; host or cells: heart of spontaneously hypertensive rats (SHR)
Procedure: The enzymatic activities of H9c2 cells or tissue samples were detected by in-gel gelatin zymography. In brief, twenty µg protein from tissue or twenty microliter culture supernatant of H9c2 cells with different treatments was electrophoresed in 10% SDS-PAGE containing 1% gelatin as MMP substrate under non-reducing conditions. After electrophoresis, the gel was washed in 1% Triton X-100 for 1 h, rinsed in water, and incubated overnight in substrate buffer containing 50 mmol/L Tris-HCl, 5 mmol/L CaCl2, and 150 mmol/L NaCl (pH 7.5) at 37°C with gentle shaking. Then, the gel was stained in 0.1% Coomassie Blue R-250 and destained using 10% methanol, 5% acetic acid solution. The gel was scanned using a MiniBis system (DNR Bio-Imaging Systems Ltd) and the detected protein species corresponding to the expected molecular weight of MMP-9 was visualized.
2-month old male SHR rats were given rodent chow containing 8% NaCl 4 weeks before SaA treatment to the end of the experiment. Rats were divided into four groups (20 per group) and were injected intraperitoneally with saline or SalA everyday at the indicated dose for 4 weeks. The four groups were named as SalA (0 mg/kg), SalA (2.5 mg/kg), SalA (5 mg/kg), SalA (10 mg/kg) basing on the dose of SalA, respectively.

T2 sequence (P50282 108-708): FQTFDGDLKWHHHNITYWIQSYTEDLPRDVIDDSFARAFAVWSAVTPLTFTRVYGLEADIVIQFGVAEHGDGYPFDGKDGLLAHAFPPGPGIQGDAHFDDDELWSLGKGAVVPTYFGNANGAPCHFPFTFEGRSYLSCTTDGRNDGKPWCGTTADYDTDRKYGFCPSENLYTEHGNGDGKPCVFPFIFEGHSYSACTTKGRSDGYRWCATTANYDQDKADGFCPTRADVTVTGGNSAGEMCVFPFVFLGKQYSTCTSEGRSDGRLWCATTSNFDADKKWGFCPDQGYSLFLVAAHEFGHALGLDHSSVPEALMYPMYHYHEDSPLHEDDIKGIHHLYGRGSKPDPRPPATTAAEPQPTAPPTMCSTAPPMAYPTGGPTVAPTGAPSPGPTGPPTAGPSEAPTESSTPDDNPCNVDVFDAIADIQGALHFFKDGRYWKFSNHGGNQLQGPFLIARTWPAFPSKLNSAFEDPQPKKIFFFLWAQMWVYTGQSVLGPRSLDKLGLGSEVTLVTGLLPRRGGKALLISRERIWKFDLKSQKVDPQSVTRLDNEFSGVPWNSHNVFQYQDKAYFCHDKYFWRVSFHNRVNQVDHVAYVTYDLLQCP

O=C(/C=C/c1ccc(O)c(O)c1/C=C/c1ccc(O)c(O)c1)O[C@H](Cc1ccc(O)c(O)c1)C(=O)O [SalA, salvianolic acid A]
α-SMA up-regulation (myofibroblast transformation) induced by MMP-9 CD [1]: reversed the effects of MMP-9 CD
migrated cells [2]: 45.3±9.1 cells per field
Kd (MMP-9 CD): 800 nM
MMP-9 activity in heart of SHRs (MMP-9): inhibited by SalA significantly
